In patent US20070178523A1, “Novel druggable regions in set domain proteins, and methods of using the same” (Emory University, priority 2002, published 2007):
“Also recorded” adds a separate entry of the source.

Columns and labels:
[1] = biological target: T1, DIM-5 (Neurospora crassa, UniProt Q8X225); details: when EDTA completely abolished DIM-5 activity
Experimental: To remove zinc bound to EDTA, the protein was either dialyzed (Exp1) or subjected to gel filtration chromatography (Exp2) against 20 mM glycine (pH 9.8), 5% glycerol, 0.5 mM DTT and 1 mM EDTA.
One sample of untreated and two samples of EDTA treated DIM-5 protein (about 2 ml of 2 mg/ml each) was analyzed for the presence of 20 elements on a Thermo Jarrell-Ash Enviro 36 ICAP analyzer at the Chemical Analysis Laboratory of the University of Georgia at Athens. In order to calculate the molar ratio of Zn to protein, the precise concentration of the untreated DIM-5 protein was determined by amino acid analysis (averaging two independent measurements) performed at the Keck Facilities at Yale University. The extinction coefficient (29,559 M^−1 cm^−1) derived from the amino acid analysis was used to estimate the protein concentration of the EDTA-treated samples.

[2] = biological target: T1, DIM-5; assay: Methyl transfer (HKMT) activity assay; type: biochemical, N. crassa; design: A segment of the wild-type dim-5 ORF, including amino acid residues 17-318, was amplified; GST (N, cleaved yes); made in house; host or cells: E. coli BL21(DE3) Codon plus RIL carrying pXC379 (pGEX2T); details: for DIM-5 activity after incubation with metal chelator: incubation of metal chelator with DIM-5 protein
Experimental: The activity of the DIM-5 was assayed in a 20 μl reaction containing 50 mM glycine (pH 9.8), 2 mM DTT, 40-80 μM unlabelled AdoMet (Sigma), 0.5 μCi [methyl-^3H]AdoMet (78 Ci/mmol, NEN NET155H), 0.25-0.5 μg of DIM-5 protein, and 2-5 μg histones (calf thymus histones Sigma H4524, Roche 223565, or recombinant chicken erythrocyte histones, a gift from Dr. V. Ramakrishnan). The reaction was incubated at room temperature for 10-15 min and methylation was analyzed either by SDS-PAGE and fluorography, or by precipitation with 20% TCA, filtration (Milipore GF/F filter), washing and liquid scintillation counting. Under these conditions, DIM-5 activity was linearly related to reaction time and amount of enzyme and AdoMet and histone were saturating. For some reason, the relatively crude Sigma H4524 histone preparations generally gave 2-4 fold higher incorporation than either the Roche preparations or the recombinant histones.

[3] = biological target: T1, DIM-5; assay: AdoMet-binding assay by UV crosslinking; design: A segment of the wild-type dim-5 ORF, including amino acid residues 17-318, was amplified; GST (N, cleaved yes); made in house; host or cells: E. coli BL21(DE3) Codon plus RIL carrying pXC379 (pGEX2T); species or system N. crassa; details: incubation of metal chelator with DIM-5 protein
Experimental: Twenty μl of purified DIM-5 protein (2-5 μg) was incubated with 0.5 μCi of [methyl-^3H]AdoMet (78 Ci/mmol, NEN NET155H) overnight at 4° C. Samples were added to a 96-well plate on ice and placed 8 cm from an inverted UV transilluminator (VWR, 302 nm) for 1 hr. The protein was then separated by SDS-PAGE, stained with Coomassie and subjected to fluorography.

T1 sequence (Q8X225 30-331): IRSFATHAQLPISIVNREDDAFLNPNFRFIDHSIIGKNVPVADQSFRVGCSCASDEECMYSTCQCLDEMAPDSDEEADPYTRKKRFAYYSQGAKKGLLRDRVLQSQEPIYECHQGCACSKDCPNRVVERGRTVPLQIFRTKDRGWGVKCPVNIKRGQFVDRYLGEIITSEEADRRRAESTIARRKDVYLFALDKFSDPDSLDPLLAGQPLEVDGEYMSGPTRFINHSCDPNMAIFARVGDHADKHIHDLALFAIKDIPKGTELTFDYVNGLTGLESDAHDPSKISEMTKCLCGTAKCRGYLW

## O=C(O)CN(CCN(CC(=O)O)CC(=O)O)CC(=O)O [EDTA]
[1]
  zinc ions retained by the protein: ~2.9 zinc ions
[2]; DIM-5 incubated with 20 mM EDTA for 2 days
  HKMT activity: no longer detectable
[2]
  DIM-5 activity after incubation with metal chelator: inhibited its activity; also recorded: completely abolished
[3]
  AdoMet-binding: significantly reduced

## c1cnc2c(c1)ccc1cccnc12 [phenanthroline, 1,10-phenanthroline]
[2]
  DIM-5 activity after incubation with metal chelator: inhibited its activity
[3]
  AdoMet-binding: significantly reduced

## [Cl-].[Na+] [NaCl]
[2]; 100 mM NaCl
  inhibition of DIM-5 activity: about 95%
